Source: article PMC11603075 (Communications Biology, 2024)

Biological target: T1, KDM4E (Homo sapiens, UniProt B2RXH2)
T1 construct: KDM4E1–337; made in house; host or cells: E. coli
T1 sequence (B2RXH2 1-337): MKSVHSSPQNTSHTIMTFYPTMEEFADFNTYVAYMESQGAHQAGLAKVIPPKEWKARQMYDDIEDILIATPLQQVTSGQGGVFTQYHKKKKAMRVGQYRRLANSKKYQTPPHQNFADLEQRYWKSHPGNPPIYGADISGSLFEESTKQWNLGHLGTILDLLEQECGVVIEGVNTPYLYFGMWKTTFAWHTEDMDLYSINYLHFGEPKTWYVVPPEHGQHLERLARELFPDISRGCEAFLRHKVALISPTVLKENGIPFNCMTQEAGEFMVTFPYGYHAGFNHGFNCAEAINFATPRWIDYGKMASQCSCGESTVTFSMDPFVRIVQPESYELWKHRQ
Assay: FDH-coupled demethylation assay, Michaelis–Menten kinetics
Assay type: biochemical
Method: The RDM activity of KDM4E with H2a(1–20)R3me2a was compared with demethylation of H3(1–21)R2me2a using a formaldehyde dehydrogenase (FDH) assay[23],[24]. KDM4E catalysed demethylation of H2a R3me2a was less efficient than H3 R2me2a by approximately three-fold under the same conditions (kcat/KM 0.89 hr^−1 µM^−1 for H2a(1–20)R3me2a and 2.58 hr^−1 µM^−1 for H3(1–21)R2me2a).
When LC–MS-based assays were used, time course assays were carried out as described; product formation (%) was plotted against time (s) using GraphPad Prism5 version 5.04. The gradient of each reaction was calculated by fitting a line of linear regression to the first-order region. The resultant slope was used to calculate reaction rate in µM hr^−1. The rate versus peptide concentration (µM) was plotted and the KM, kcat, and Vmax values determined by fitting the Michaelis–Menten equation using GraphPad Prism5 version 5.04. […]
Supplementary Figure 3 KDM4E catalysed H2a(1–20) hydroxylation and H3(1–21)R2me2a demethylation. Michaelis–Menten plots monitoring: ( a) hydroxylation of H2a(1–20) measured using LC– MS (R2 value obtained was 0.5 indicating poor goodness of fit, likely due to limited data at low substrate concentrations due to signal:noise limitations), (b) demethylation of H2a(1–20)R3me2a, and (c) demethylation of H3(1–21)R2me2a measured using the FDH-coupled demethylation assay. […]

AR [ me 2a ] T KQ T AR KST GGKAPR KQ L A [H3(1–21)R2me2a, reference compound]
kcat/KM (demethylation) (FDH assay, 2 µM KDM4E, 200 µM 2OG, pH 7.5, n = 3 assay repeats): 717 M⁻¹ s⁻¹ | kcat/KM relative to KDM substrate H3 K9me3 (fold less) (same FDH assay, H3 K9me3 from ref 7): 13 fold
